Laboratory results as given in patent US20230183224A1, “BEZOXAZINE DERIVATIVES USEFUL AS MONOACYLGLYCEROL LIPASE INHIBITORS” (Hoffmann-La Roche Inc., priority 2017, published 2023).

Target: T1, MAGL (recombinant wild-type) (Homo sapiens, UniProt Q99685)
T1 sequence (Q99685 1-303): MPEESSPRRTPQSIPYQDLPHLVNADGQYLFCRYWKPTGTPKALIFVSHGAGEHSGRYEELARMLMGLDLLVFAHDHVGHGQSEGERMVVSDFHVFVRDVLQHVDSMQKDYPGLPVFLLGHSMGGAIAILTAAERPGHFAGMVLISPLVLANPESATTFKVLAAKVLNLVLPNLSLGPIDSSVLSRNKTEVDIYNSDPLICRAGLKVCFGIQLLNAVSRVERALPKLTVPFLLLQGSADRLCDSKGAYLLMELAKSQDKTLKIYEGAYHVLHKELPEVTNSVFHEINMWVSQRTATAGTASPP
Assay: MAGL inhibitory activity, hydrolysis of 4-nitrophenylacetate to 4-nitrophenol (absorbance at 405 nm)
Type: biochemical
Settings: 1 nM MAGL, 300 μM 4-nitrophenylacetate, 15 min preincubation at RT, slope of absorbance at 405 nm between 5 and 80 min
Experimental: Compounds were profiled for MAGL inhibitory activity by measuring the enzymatic activity of MAGL by following the hydrolysis of 4-nitorphenylacetate resulting in 4-nitrophenol, which absorbs at 405-412 nm (G. G. Muccioli, G. Labar, D. M. Lambert, Chem. Bio. Chem. 2008, 9, 2704-2710).
The assay was carried out in 384 well assay plates (black with clear bottom, non-binding surface treated, Corning Ref. 3655) in a total volume of 40 μL. Compound dilutions were made in 100% DMSO (VWR Chemicals 23500.297) in a polypropylene plate in 3-fold dilution steps to give a final concentration range in the assay from 25 μM to 1.7 nM. 1 μL compound dilutions (100% DMSO) were added to 19 μL MAGL (recombinant wild-type) in assay buffer (50 mM TRIS (GIBCO, 15567-027), 1 mM EDTA (Fluka, 03690-100 ml)). The plate was shaked for 1 min at 2000 rpm (Variomag Teleshake) and then incubated for 15 min at RT. To start the reaction, 20 μL 4-Nitrophenlyacetate (Sigma N-8130) in assay buffer with 6% EtOH was added. The final concentrations in the assay were 1 nM MAGL and 300 μM 4-Nitrophenylacetate. After shaking (1 m, 2000 rpm) and 5 min incubation at RT, the absorbance at 405 nm was measured for a first time (Molecular Devices, SpectraMax Paradigm). A second measurement was then done after incubation for 80 min at RT. From the two measurements, the slope was calculated by subtracting the first from the second measurement.

O=C1COc2ccc(C(=O)N3CCN(Cc4ccc(C(F)(F)F)cc4)C(c4cc[nH]n4)C3)cc2N1 (stereo not shown) [Example 37, 6-[3-(1H-pyrazol-3-yl)-4-[[4-(trifluoromethyl)phenyl]methyl]piperazine-1-carbonyl]-4H-1,4-benzoxazin-3-one]
IC50: 2250 nM
